pIC50: −log10 of the molar value. One block for each molecule: values may come before it.
Legend:
COLO 205 cells = test: MTS cytotoxicity test with COLO 205 cells; format: cell-based, human; details: three days with compound
Protocol: (§1) The assay, which is sold in kit form by Promega (Madison, Wis.; CellTiter 96 AQueous Non-Radioactive Cell Proliferation Assay), is based on the conversion by viable cells, but not by dead cells, of the tetrazolium salt, MTS (3-(4,5-dimethylthiazol-2-yl)-5-(3-carboxymethoxyphenyl)-2-(4-sulphophenyl)-2H-tetrazolium, inner salt), into a water-soluble colored formazan which is detected by spectrophotometry. Compounds are tested at nine concentrations, in order to determine IC50 values. For the test procedure, cells are harvested by trypsinization, washed, counted and distributed to wells of 96-well flat-bottom microtiter plates at 1000 cells per well in 200 μL of medium. In addition, one row of wells on a separate plate receives cells as above (“time 0” plate). All plates are incubated at 37° in humidified 5% CO2 in air for about 24 hr.
On day 2, compounds for test are diluted and added to wells. Compounds are dissolved in DMSO at 10 mg/mL. For each compound, nine serial 2-fold dilutions are prepared in DMSO. Ten μL of each dilution in DMSO are transferred to 100 μL of medium, mixed well, and then 5 μL of this dilution are transferred in quadruplicate to wells containing cells. The final high concentration of each compound is typically 5 μM. Plates are returned to the incubator for three days. At the time of drug addition to the experimental plates, the MTS assay is run on the “time 0” plate. This produces the “time 0 MTS value” which is related to the number of viable cells per well at the time of drug addition.
After three days of culture with test compounds (day 5 overall), the MTS assay is done on all wells of the experimental plates. The absorbance values of the quadruplicate sample wells are averaged and divided by the average of the “time 0” values. The average of control wells without drug, divided by the average “time 0” value, gives the maximal relative increase in MTS color yield due to cell growth during the final three days of culture. The average of control wells with high drug concentration, divided by the “time 0” value, gives the minimal relative color yield for cells that were completely killed. The nine values for each compound are plotted against concentration, and the concentration that produces a relative color yield half way between the maximum and minimum is taken as the IC50 value.
COLO 205 is a human colon carcinoma cell line that is used for comparative testing of the examples of this invention and several reference compounds. This line is sensitive to paclitaxel and vincristine.

KB cells = test: MTS cytotoxicity test with KB cells; format: cell-based, human; details: mean of 2 experiments
From the text: (§2) Human cancer cell lines, unless otherwise noted, are obtained from the American Type Culture Collection (Rockville, Md.). The following drug-sensitive parental cell lines, and their derived drug-resistant counterparts, are obtained from the originators as listed: (a) S1 (parental line from a subclone of human colon carcinoma line LS174T) and derived S1-M1-3.2 (herein called S1-M1) which expresses the MXR drug transporter protein, are provided by Dr. L. Greenberger, Wyeth Research (Rabindran, S. K., He, H., Singh, M., Brown, E., Collins, K. I., Annable, T., and Greenberger, L. M. Reversal of a novel multidrug resistance mechanism in human colon carcinoma cells by fumitremorgin C. Cancer Res., 58: 5850-5858, 1998); (b) parental HL-60 human promyelocytic leukemia line and derived HL-60/ADR, which expresses the MRP1 drug transporter protein, are provided by Dr. M. Center, University of Kansas (McGrath, T., and Center, M. S. Adriamycin resistance in HL60 cells in the absence of detectable P-glycoprotein. Biochem. Biophys. […] J. Biol. Chem., 261: 7762-7770, 1986) via Dr. L. Greenberger, Wyeth Research.
as §1
(§3) On day 2, compounds for test are diluted and added to wells. Compounds are dissolved in DMSO at 10 mg/mL. For each compound, nine serial 2-fold dilutions are prepared in DMSO. Ten μL of each dilution in DMSO are transferred to 100 μL of medium, mixed well, and then 5 μL of this dilution are transferred in quadruplicate to wells containing cells. […] Plates are returned to the incubator for three days. At the time of drug addition to the experimental plates, the MTS assay is run on the “time 0” plate. This produces the “time 0 MTS value” which is related to the number of viable cells per well at the time of drug addition.
(§4) After three days of culture with test compounds (day 5 overall), the MTS assay is done on all wells of the experimental plates. The absorbance values of the quadruplicate sample wells are averaged and divided by the average of the “time 0” values. […] The nine values for each compound are plotted against concentration, and the concentration that produces a relative color yield half way between the maximum and minimum is taken as the IC50 value.

KB-8-5 cells = test: MTS cytotoxicity test with KB-8-5 cells (moderate P-glycoprotein); format: cell-based, human; details: KB 8.5 cells, mean of 2 experiments
From the text: as §2, §1, §3, §4

KB-V1 cells = test: MTS cytotoxicity test with KB-V1 cells (very high P-glycoprotein); format: cell-based, human; details: for IC50: KB VI cells, mean of 2 experiments
From the text: as §2, §1, §3, §4

HL-60 cells = test: MTS cytotoxicity test with HL-60 cells; format: cell-based, human; details: mean of 2 experiments
From the text: as §2, §1, §3, §4
(§5) HL-60/ADR cells overexpress the multidrug resistance protein MRP1 which mediates resistance to some chemotherapeutics (Gottesman, M. M., Fojo, T., and Bates, S. E. Multidrug resistance in cancer: role of ATP-dependent transporters. Nature Rev. Cancer, 2: 48-58, 2002). The IC50 values of representative examples of this invention, as well as reference compounds, on HL-60/ADR are compared to values on the sensitive parental HL-60 line.

HL-60/ADR cells = test: MTS cytotoxicity test with HL-60/ADR cells (MRP1); format: cell-based, human; details: for IC50: HL-60/ADR cells, mean of 2 experiments; for Ratio: IC50 on HL-60/ADR cells/IC50 on HL-60 cells
From the text: as §2, §1, §3, §4, §5

S1 cells = test: MTS cytotoxicity test with S1 cells; format: cell-based, human; details: mean of 2 experiments
From the text: as §2, §1, §3, §4
as §5, with “S1-M1” for “HL-60/ADR”, “MXR transporter” for “multidrug resistance protein MRP1”, “Miltidrug” for “Multidrug”, “S1” for “HL-60”

S1-M1 cells = test: MTS cytotoxicity test with S1-M1 cells (MXR); format: cell-based, human; details: for IC50: S1-M1 cells, mean of 2 experiments; for Ratio: IC50 on S1-M1 cells/IC50 on S1 cells
From the text: as §2, §1, §3, §4
as §5, with “S1-M1” for “HL-60/ADR”, “MXR transporter” for “multidrug resistance protein MRP1”, “Miltidrug” for “Multidrug”, “S1” for “HL-60”

[1] = test system: highly purified tubulin (tubulin heterodimer); test: Competitive binding test, [3H]vinblastine; set-up: species or system bovine; details: competitor 100 μM, [3H]vinblastine 100 nM, percent of binding to control without competitor
Protocol: (§6) Medium is RPMI-1640 with L-glutamine, supplemented with 10% heat-inactivated fetal calf serum, 100 units/mL penicillin, and 100 μg/mL streptomycin (Gibco, Grand Island, N.Y.). Microtubule-associated protein (MAP)-rich tubulin, containing about 70% tubulin and 30% MAPs (#ML113), and highly purified tubulin (>99% pure, #TL238), both from bovine brain, are obtained from Cytoskeleton, Inc., Denver, Colo. PEM buffer (80 mM piperazine-N,N′-bis[2-ethanesulfonic acid], pH 6.9, 1 mM ethylene glycol-bis(β-aminoethyl ether)-N,N,N′,N′-tetraacetic acid, 1 mM magnesium chloride) and guanosine 5′-triphosphate (GTP) are also obtained from Cytoskeleton. […] [^3H]vinblastine, specific activity 9.60 Ci/mmol and MicroSpin G-50 columns are obtained from Amersham Biosciences (Piscataway, N.J.). […] Other reagents are obtained from Sigma (St. Louis, Mo.).
(§7) The binding of examples of this invention to highly purified tubulin is studied by competitive inhibition methods.
(§8) These solutions are incubated at 24° for 1 hr and then applied to MicroSpin G-50 columns which are centrifuged for 2 min at 3000 rpm in an Eppendorf 5415C microfuge. An aliquot of each column effluent (containing tubulin and bound radioligand) is mixed with scintillation fluid and counted in a liquid scintillation spectrometer. […] Quadruplicates are averaged, and the ability of the competitor to inhibit the binding of the radioligand is expressed as a percentage of control binding in the absence of any competitor.

[2] = test system: highly purified tubulin (tubulin heterodimer); test: Competitive binding test, [3H]colchicine; set-up: species or system bovine; details: competitor 100 μM, [3H]colchicine 50 nM, percent of binding to control without competitor
Protocol: as §6, §7, §8

MAP-rich tubulin = test: Tubulin polymerization test with MAP-rich tubulin; format: biochemical, bovine; details: 0.3 μM compound, mean A340 at 20 min, fold enhancement over control
Protocol: as §6
MAP-rich tubulin is dissolved in ice-cold PEM buffer containing 1 mM GTP (GPEM buffer) at a concentration of 1.3 mg/mL. The solution is centrifuged at top speed in an Eppendorf model 5415C microcentrifuge (Brinkmann Instruments, Westbury, N.Y.) for 10 min at 4° immediately before use. The tubulin solution is added to wells of a ½-area 96-well plate (Costar No. 3696, Corning, Inc., Corning, N.Y.) already containing the compounds of interest. Each compound is tested in duplicate at a final concentration of 0.3 μM in a volume of 110 μL per well. The final DMSO concentration in all wells is 0.3%. Control reactions, which receive compound solvent only, are done in quadruplicate. The plate is put in a SpectraMax Plus plate reader (Molecular Devices Corp. Sunnyvale, Calif.) thermostated at 24° and the absorbance of each well at 340 nm, a measure of the appearance of turbidity due to tubulin polymer formation, is determined every minute for 60 minutes. The absorbance at time 0 for each well is subtracted from each of the subsequent absorbance readings for that well, and then the duplicates are averaged.

Compound: CN(C)CCCOc1cc(F)c(-c2c(Cl)nc(N(C)C#N)nc2NCC(F)(F)F)c(F)c1 [Example 19, 4-Chloro-5-{4-[3-(dimethylamino)propoxy]-2,6-difluorophenyl}-6-[(2,2,2-trifluoroethyl)amino]pyrimidin-2-yl(methyl)cyanamide]
pIC50 (COLO 205 cells; Homo sapiens, 72 h): 7.28 | IC50 (KB cells; Homo sapiens): 63 nM | IC50 (KB-8-5 cells; Homo sapiens): 69 nM | IC50 (KB-V1 cells; Homo sapiens, KB-V1): 176 nM | IC50 (HL-60 cells; Homo sapiens): 66 nM | IC50 (HL-60/ADR cells; Homo sapiens, HL60/ADR): 60 nM | Ratio (HL-60/ADR cells): 0.9 | IC50 (S1 cells; Homo sapiens): 88 nM | IC50 (S1-M1 cells; Homo sapiens): 88 nM | Ratio (S1-M1 cells): 1.0 | [3H]Vinblastine binding, Mean [1]: 22 % of control | [3H]Colchicine binding, Mean [2]: 116 % of control

Compound: CN(C#N)c1nc(Cl)c(-c2c(F)cc(F)cc2F)c(NCC(F)(F)F)n1 [Example 1, 4-Chloro-6-[(2,2,2-trifluoroethyl)amino]-5-(2,4,6-trifluorophenyl)pyrimidin-2-yl(methyl)cyanamide]
pIC50 (COLO 205 cells; Homo sapiens, 72 h): 6.67 | [3H]Vinblastine binding, Mean [1]: 30 % of control | [3H]Colchicine binding, Mean [2]: 47 % of control

Compound: CC(=O)O[C@@]12CO[C@@H]1C[C@H](O)[C@@]1(C)C(=O)[C@H](O)C3=C(C)[C@@H](OC(=O)[C@H](O)[C@@H](NC(=O)OC(C)(C)C)c4ccccc4)C[C@@](O)([C@@H](OC(=O)c4ccccc4)[C@H]21)C3(C)C [Docetaxel, reference compound]
A340 Compound / A340 Control (MAP-rich tubulin): 8.6

Compound: CNCCCOc1cc(F)c(-c2c(Cl)nc(-c3cnccn3)nc2C2CCCCCC2)c(F)c1.O=C(O)C(F)(F)F [Example 33a, N-{3-[4-(4-Chloro-6-cycloheptyl-2-pyrazin-2-ylpyrimidin-5-yl)-3,5-difluorophenoxy]propyl}-N-methylamine trifluoroacetic acide salt]
pIC50 (COLO 205 cells): 8.09 | IC50 (KB cells): 6.8 nM | IC50 (KB-8-5 cells): 7.5 nM | Ratio VI/KB (KB-V1 cells; IC50 on KB VI cells/IC50 on KB cells): 13 | IC50 (KB-V1 cells): 91 nM | recognition by P-glycoprotein (KB-V1 cells; inferred from change in IC50 KB-V1 vs KB): show recognition by P-glycoprotein, but much less than that shown by paclitaxel and vincristine | IC50 (HL-60 cells): 6.9 nM | IC50 (HL-60/ADR cells): 6.1 nM | Ratio (HL-60/ADR cells): 0.9 | IC50 (S1 cells): 8.5 nM | Ratio (S1-M1 cells): 1.4 | IC50 (S1-M1 cells): 12 nM | A340 Compound / A340 Control (MAP-rich tubulin): 0.5

Further lines, with some results ahead:

melting point: 168 to 170 °C
Compound: Fc1cc(F)c(-c2c(Cl)nc(-n3ccnc3)nc2NCC(F)(F)F)c(F)c1 [Example 15, 6-Chloro-2-(1H-imidazol-1-yl)-N-(2,2,2-trifluoroethyl)-5-(2,4,6-trifluorophenyl)pyrimidin-4-amine]
pIC50 (COLO 205 cells; Homo sapiens, 72 h): 5.52

melting point: 47 to 49 °C
Compound: CN(C)CCCOc1cc(F)c(-c2c(Cl)nc(-n3ccnc3)nc2NCC(F)(F)F)c(F)c1 [Example 31, 6-Chloro-5-{4-[3-(dimethylamino)propoxy]-2,6-difluorophenyl}-2-(1H-imidazol-1-yl)-N-(2,2,2-trifluoroethyl)pyrimidin-4-amine]
pIC50 (COLO 205 cells; Homo sapiens, 72 h): 6.17
